Where two headings read alike, the source gives them in different places.

One data set has as its system NB4 leukemia cell line. The data set is described as follows: CellTiter-Blue cell viability assay, NB4. The settings on record: CellTiter-Blue, 48 h, maximum tested concentration 20 µM, read-out: IC50 ± SEM, NB4. The class given is cell-based, human. The procedure:
(§1) HL60, K562, MV4-11 and NB4 were purchased from CLS Cell Line Service GmbH (Eppelheim, Germany). All cell lines were cultured in RPMI-1640 medium supplemented with 10% fetal bovine serum (FBS) (Thermo Fisher Scientific) and 0.1% ciprofloxacin (2.5mg/ml; Cipla Limited; Mumbai, India), and were maintained at 37°C in the presence of 21% O2 and 5% CO2.
(§2) Cell viability was determined using the CellTiter®-Blue Cell Viability Assay kit (Promega, Madison, WI, USA). Approximately 10^4 cells were counted and plated in a 96-well plate in the presence of test compounds ranging from 0.01 to 10 or 20 µM in triplicate and were incubated for 48 h at 37°C in a humidified incubator. After the incubation period was complete, 20 µL of CellTiter®-Blue Cell Viability Assay reagent was added to each well and incubated for additional 2 h for the development of florescence. Florescence was measured at Ex/Em 540/590 on SpectraMax® i3 Multi-Mode microplate reader (Molecular Devices, LLC; San Jose, CA, USA) and plotted against drug concentration to determine the IC50 of the test compounds. The IC50 was obtained by non-linear regression model using GraphPad Prism 6.07 (GraphPad Software, Inc, USA).
On the technique in general: Resazurin is reduced to fluorescent resorufin, in cell work by metabolically active cells.

Another data set deals with T1, CYP3A4 (Homo sapiens, UniProt P08684).
T1 construct: purchased Fisher Scientific; host or cells: insect cells (supersomes)
Description: Inhibition assay of human CYP450 enzymes, 3A4. Particulars: for IC50: testosterone substrate; for no inhibition of CYP3A4 at concentrations up to: the values are: IC50. The class given is in vitro ADME. The protocol:
The two compounds 4e and 4n were assessed for their ability to inhibit the three major human CYP450 enzymes, 3A4, 2D6 and 2C9. Assays were run in triplicate. Expressed enzymes in insect supersomes (Fisher Scientific, Waltham, MA) were used to minimize non-specific binding and membrane partitioning issues ([68]). The 3A4 assay uses testosterone as a substrate and analysis was performed by LC/MS/MS on a Waters Xevo TQ instrument as described above using positive electrospray ionization. Assay acceptance criteria was 20% for all standards and 25% for the LLOQ. The 2D6 and 2C9 assays use fluorescent substrates (3-[2-(N,N-diethylamino)ethyl]-7-methoxy-4-methylcoumarin for 2D6; 7-methoxy-4-(trifluoromethyl)coumarin for 2C9) and were analyzed on an Envision plate reader. GraphPad® Prism v 5.04 was used for nonlinear fitting of data to generate IC50 values.

Data set [1] deals with MV4-11 leukemia cell line. Description: CellTiter-Blue cell viability assay, MV4-11. The class given is cell-based. The settings on record: Homo sapiens, CellTiter-Blue, 48 h, maximum tested concentration 20 µM, read-out: IC50 ± SEM, MV4-11. The procedure: as §1, §2
The next data set concerns K562 leukemia cell line. Description: CellTiter-Blue cell viability assay, K562. In kind it is cell-based. Particulars: Homo sapiens, CellTiter-Blue, 48 h, maximum tested concentration 20 µM, read-out: IC50 ± SEM, K562. The protocol: as §1, §2
Data set [2] can be described thus: Binding to mouse plasma proteins (equilibrium dialysis). The settings on record: 10 µM, 37°C, 22 h dialysis. In kind it is in vitro ADME. The procedure:
The equilibrium dialysis method for determining plasma protein binding was performed as previously described using 96-well dialyzer plates with molecular weight cutoff of 5K (Harvard Aparatus, Holliston, MA) and a dual-plate rotator set to maximum speed (Harvard Aparatus, Holliston, MA) located in a 37°C incubator with a 10% CO2-atmospheric environment. Assays were run in triplicate. The test compounds were added to CD-1 mouse plasma (Innovative Research, Novi, MI, sodium heparin added as anticoagulant; pH adjusted to 7.4 with 2N HCl on day of use) in DMSO (final DMSO concentration 0.4%) to give 10 µM final concentration. Drug/plasma mixture and buffer (Dulbecco’s phosphate-buffered saline 1X without calcium and magnesium, Mediatech, Inc., Herndon, VA) were placed in their respective sides, wells were capped, and the plate was placed in the rotator and allowed to dialyze for 22 h. Following dialysis, aliquots of buffer and plasma mixture were removed and mixed with aliquots of the opposite matrix in 96-well deep plates. Concentrations of analytes from each side of the dialysis plate were determined by LC/MS/MS on a Waters Xevo TQ instrument as described above using positive electrospray ionization. […] The fraction unbound was calculated by dividing the drug concentration in the buffer side of the dialysis plate by the drug concentration in the plasma side.
On the technique in general: Equilibrium dialysis compares concentrations on both sides of a semipermeable membrane.

The test system of a further data set is HL60 leukemia cell line. Description: CellTiter-Blue cell viability assay, HL60. The class given is cell-based. The settings on record: Homo sapiens, HL-60; CellTiter-Blue, 48 h; maximum tested concentration 20 µM; read-out: IC50 ± SEM, HL60. The protocol:
as §1, §2

A short description of data set [3]: Stability in mouse liver microsomes. Particulars: for half-life: male, CD-1, mouse liver microsomes with NADPH, 37°C, read-out: Stability MLM t1/2; for Mic. Ctrl. Mouse % 60 min: mouse liver microsomes, no NADPH added. The class given is in vitro ADME. The procedure:
Both mouse and human liver microsomes were obtained from Merck KGaA, (Darmstadt, Germany), Cat. No. M9441 (Mouse liver microsomes) and M0317 (Human liver microsomes). Assays were conducted in triplicate in 96-deep well polypropylene plates. […] At five time points, reaction mixture aliquots were transferred to 96-shallow well stop plates on ice containing acetonitrile with 0.1 µM propafenone. […] Standard curves for test compound were generated using 5 concentrations in triplicate that were processed as above but with zero incubation time. Stop plates were centrifuged at 2000 g for 10 min and then supernatant aliquots were transferred to a Waters Aquity® UPLC 700 µL 96-well sample plate with cap mat (Waters, Milford, MA). The amount of compound remaining in the supernatant was quantified by LC/MS/MS using a Waters Xevo TQ MS (electrospray positive mode) coupled to a Waters Aquity® UPLC (BEH column, C18). Propafenone was used as the internal standard. GraphPad® Prism v 5.04 was used for nonlinear fitting of time course data to generate t1/2 values.
Background: Liver microsomes are a subcellular fraction often used to study metabolism.

T1 sequence (P08684 whole entry): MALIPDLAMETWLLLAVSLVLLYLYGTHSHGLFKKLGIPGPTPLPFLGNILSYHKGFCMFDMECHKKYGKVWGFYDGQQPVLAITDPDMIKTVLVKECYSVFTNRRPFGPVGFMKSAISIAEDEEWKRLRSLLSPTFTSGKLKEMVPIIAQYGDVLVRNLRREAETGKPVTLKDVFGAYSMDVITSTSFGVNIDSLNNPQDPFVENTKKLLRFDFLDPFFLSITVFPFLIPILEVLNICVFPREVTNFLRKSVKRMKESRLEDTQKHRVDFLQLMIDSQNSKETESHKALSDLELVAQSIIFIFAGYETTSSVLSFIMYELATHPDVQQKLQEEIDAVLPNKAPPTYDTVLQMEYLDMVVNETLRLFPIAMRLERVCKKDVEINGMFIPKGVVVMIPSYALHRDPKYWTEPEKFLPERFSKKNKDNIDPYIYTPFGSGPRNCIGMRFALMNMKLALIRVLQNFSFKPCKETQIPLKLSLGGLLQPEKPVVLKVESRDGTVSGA

In the case of `O=C(Cc1ccc(NC(=O)c2cccc(Cl)c2)cc1)NCc1ccccc1` [Compound 4e, N-(4-(2-(benzylamino)-2-oxoethyl)phenyl)-3-chlorobenzamide], the IC50 – broadly, the point on the concentration scale where inhibition reaches its midpoint – in the data set with NB4 leukemia cell line was 940 nM; with NB4 leukemia cell line (Homo sapiens), 960 nM; against CYP3A4, above 10 µM; in data set [1] it was 1900 ± 80 nM; in the data set with K562 leukemia cell line, 4.23 ± 0.2 µM; in the data set on HL60 leukemia cell line, 1620 ± 130 nM. The compound further displayed a no inhibition of CYP3A4 at concentrations up to at CYP3A4 above 10 µM. Further, the “Mouse PPB (% free)” value in data set [2] came out at 0.8 % free. The half-life in data set [3] was above 60 min. The “Mic. Ctrl. Mouse % 60 min” value in data set [3] is given as 73%.

As to `O=C(Cc1ccc(NC(=O)c2cccc(Cl)n2)cc1)NCc1ccccc1` [Compound 4n, N-(4-(2-(benzylamino)-2-oxoethyl)phenyl)-6-chloropicolinamide], the IC50 is 1540 ± 660 nM with NB4 leukemia cell line (Homo sapiens); above 10 µM against CYP3A4; 1960 ± 470 nM in data set [1]; 2.69 ± 0.65 µM with K562 leukemia cell line; 2220 ± 60 nM in the data set on HL60 leukemia cell line. For the same compound, on CYP3A4, the no inhibition of CYP3A4 at concentrations up to was above 10 µM. Also, in data set [2], the “Mouse PPB (% free)” value was “Unstable”. The half-life in data set [3] stood at 3.1 min. Besides, in data set [3], the “Mic. Ctrl. Mouse % 60 min” value was 5.0%.

The values above are taken from paper PMC9166630, “SAR Probing of KX2-391 Provided Analogues With Juxtaposed Activity Profile Against Major Oncogenic Kinases” (Frontiers in Oncology, 2022).
